This experiment concerns the target Plasma kallikrein (Homo sapiens, UniProt P03952). In words: Inhibitory Activity of Exemplary Compounds Against Plasma Kallikrein. The protocol: Example compounds were evaluated for inhibition of the human activated kallikrein enzyme in two formats of an assay employing a fluorogenic peptide substrate. In one assay format, the concentrations of reagents were as follows: 20 mM Tris pH 7.5, 1 mM EDTA, 150 mM sodium chloride, 0.1% PEG-400, 0.1% Triton X-100, […], 300 uM Pro-Phe-Arg-7-amido-4-methylcoumarin substrate. Prior to reaction initiation with substrate, enzyme and inhibitors were preincubated for 30 min at RT. After initiation with substrate, reactions were incubated for 10 min at RT and fluorescence emission at 460 nm from 380 nm excitation measured with a microplate reader. In another assay format, the concentrations of reagents were as follows: 20 mM Tris pH 7.5, 1 mM EDTA, 150 mM sodium chloride, 0.1% PEG-400, 0.1% Triton X-100, 5 pM activated kallikrein enzyme, 300 uM Pro-Phe-Arg-7-amido-4-methylcoumarin substrate. Prior to reaction initiation with substrate, enzyme and inhibitors were preincubated for 30 min at RT. After initiation with substrate, reactions were incubated for 18 h at RT and fluorescence emission at 460 nm from 380 nm excitation measured with a microplate reader.

We go through one compound from BindingDB's records for patent US11787796 (Takeda Pharmaceutical, 2023).

A value given as a limit tells only on which side of the number the result lay.

Usually EC50 stands for the concentration giving half of the maximal effect. A lower EC50 goes with greater potency.

Sequence of Plasma kallikrein (P03952 20-390 limits assumed): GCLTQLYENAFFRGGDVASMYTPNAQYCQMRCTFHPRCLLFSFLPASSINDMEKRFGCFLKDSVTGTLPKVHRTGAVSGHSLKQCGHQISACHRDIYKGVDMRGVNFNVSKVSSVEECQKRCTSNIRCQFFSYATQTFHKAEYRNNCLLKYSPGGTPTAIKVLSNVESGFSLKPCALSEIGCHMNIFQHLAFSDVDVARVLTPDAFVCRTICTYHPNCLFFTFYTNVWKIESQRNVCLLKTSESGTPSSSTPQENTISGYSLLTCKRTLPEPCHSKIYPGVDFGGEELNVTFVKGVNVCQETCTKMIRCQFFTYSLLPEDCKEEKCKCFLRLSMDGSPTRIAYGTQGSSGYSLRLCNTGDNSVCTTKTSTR
Sequence of Plasma kallikrein (P03952 391-638 limits assumed): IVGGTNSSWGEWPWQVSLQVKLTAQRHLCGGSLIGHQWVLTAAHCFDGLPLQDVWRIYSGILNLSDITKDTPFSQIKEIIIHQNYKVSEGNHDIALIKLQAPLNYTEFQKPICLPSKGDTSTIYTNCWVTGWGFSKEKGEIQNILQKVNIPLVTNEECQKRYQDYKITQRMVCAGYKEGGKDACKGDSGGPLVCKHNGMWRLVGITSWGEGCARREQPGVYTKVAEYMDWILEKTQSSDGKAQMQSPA

Take `COc1ccc(-n2cnnn2)c(CNC(=O)c2nnn(Cc3cn4cc(C5CC5)ccc4n3)n2)c1F` [US11787796, Compound I-28]: the EC50 was less than 1 nM.
